In assay [1] the test system is 12 mouse syngeneic tumor models. In words: Antitumor activity of lenvatinib on mouse syngeneic tumor models (ΔT/C). The format is in vivo. To be noted: 10 mg/kg once daily oral; ΔT/C on day 15; BNL, Renca and B16-F10 vs other nine models; p<0.05, t-test; FIG. 3c. How it is done: The twelve mouse cell lines shown in Table 1 were subcutaneously inoculated into the right lateral side of 7-week-old immune competent mice. Mice were randomly grouped when the tumor size reached approximately 100 mm^3. Lenvatinib (10 mg/kg once daily) was orally administered for mice of lenvatinib treatment group. The day on which treatment was started was designated as day 1. The values of antitumor activity (ΔT/C) were calculated as ΔT/ΔC×100 where ΔT and ΔC are changes in the mean tumor volumes for drug treated and untreated control groups, respectively. When the tumor volumes decreased from the initial tumor volumes, ΔT/C values were calculated as (Tt−T1)/T1×100, where Tt and T1 are the mean tumor volumes of drug treated group on day t after the start of treatment and day 1, respectively. ΔT/C on day 15 was used for the analysis.

Assay [2] shares this test system. Briefly: Changes in MVD gene score of 12 mouse syngeneic tumor models with or without angiogenesis inhibitor treatment (RNA-seq). In kind it is in vivo. To be noted: tumors collected on day 8, p<0.05, t-test, FIG. 7; for Gene score compared with non-treatment group: lenvatinib 10 mg/kg once daily oral, aflibercept 5 mg/kg twice a week i.p. The procedure:
Twelve mouse cell lines were cultured with appropriate medium (Table 1). Cells were harvested and suspended with Hanks' Balanced Salt Solution (HBSS) and subcutaneously inoculated into right lateral side of 7-week old immune competent mice. Tumor size was measured by an electronic digital caliper (Digimatic Caliper, Mitsutoyo Corporation) and calculated with a formula; (short diameter (mm))^2×(long diameter (mm))/2. Tumors around 100 mm^3 were resected and soaked with RNA later. mRNA extracted from tumor samples were followed by RNA-seq using Illumina NovaSeq™ (GENEWIZ) to quantify expression levels of mRNA. Sequenced reads were subjected to quality assessment by FastQC (version 0.11.5). Illumina adaptor sequences and low quality bases were trimmed by using Trimmomatic (version 0.36). Filtered reads were mapped to the mouse genome (GRCm38/mm10 and Ensembl 88) by using STAR (v2.5.2b). Gene expression levels in transcripts per million (TPM) for all samples were estimated by using RSEM (v1.2.31). Using the same tumor samples, CD31 was stained with anti-CD31 antibody (Clone SZ31, dianova) to detect endothelial cells in IHC analysis. Microvessel density (MVDCD31) score was calculated by dividing the number of CD31 positive blood vessels by tumor area using HALO (Indica Lab).
We developed a gene score by the following steps. First, we extracted 1086 genes that were highly expressed in an endothelial cell population using scRNA-seq data of the Hepa 1-6 mouse HCC model. Next, we extracted genes with TOP20 Pearson's correlation coefficient between its logarithm-transformed expression values (log2 (TPM+1)) and MVD (IHCCD31) using 12 syngeneic tumor models that were measured by RNA-seq and IHC, respectively. Of these 20 genes, we selected seven genes that had known association with vasculature from literature search and added 3 well-known endothelial cell markers to the gene list (Table 2). We further selected genes whose expression were specific to endothelial cell cluster by manually checking t-SNE plots of scRNA-seq data of Hepa 1-6 HCC model. Finally, six genes were chosen as mouse MVD gene set. The gene score of sample i was calculated as follows: […]
The twelve mouse cell lines shown in Table 1 were subcutaneously inoculated into right lateral side of 7-week-old immune competent mice. Mice were randomly grouped into non-treatment and lenvatinib treatment groups when the tumor size reached approximately 100 mm^3 (n=3 for each group). Lenvatinib (10 mg/kg once daily) was orally administered for mice of lenvatinib treatment group and aflibercept (5 mg/kg twice a week) was administered intraperitoneally for mice of aflibercept treatment group for a week. The day on which treatment was started was designated as day 1. […]

Assay [3] deals with PLC/PRF/5 xenograft HCC model and two HCC patient-derived xenograft models. Particulars: cited from earlier work.

As for `COc1cc2nccc(Oc3ccc(NC(=O)NC4CC4)c(Cl)c3)c2cc1C(N)=O` [lenvatinib, 4-(3-chloro-4-(cyclopropylaminocarbonyl)aminophenoxy)-7-methoxy-6-quinolinecarb oxamide], in assay [1], the “antitumor activity (ΔT/C) in lenvatinib sensitive models compared to other nine tumor models” value was “more antitumor activity”. In assay [2], the “Gene score compared with non-treatment group” value is reported as “decreased” and the “number of tumor models (of 12) in which gene score was decreased vs non-treatment group” value is given as 10 tumor models. Moreover, the tumor microvessel density entry in assay [3] is reported as “reduced tumor microvessel density”.
For the compound “aflibercept: inhibitor of VEGF which binds to circulating VEGF and acts as VEGF-trap, leading to inhibiting tumor angiogenesis”, in assay [2], the “Gene score compared with non-treatment group” value is “significantly decreased” and the “number of tumor models (of 12) in which gene score was decreased vs non-treatment group” value is “eight”.

These data come from US20240271223A1, “BIOMARKERS FOR A THERAPY COMPRISING AN ANGIOGENESIS INHIBITOR” (Eisai R&D Management Co., Ltd., priority 2021, published 2024).
